Laboratory results reported in ChEMBL document CHEMBL4619828, “Discovery of Potent and Orally Bioavailable Small Molecule Antagonists of Toll-like Receptors 7/8/9 (TLR7/8/9)” (ACS Med Chem Lett, 2020).

How the values were obtained:
Toll-like receptor 9 = target: T1, Toll-like receptor 9 (Homo sapiens, UniProt Q9NR96); test: Antagonist activity at TLR9 (unknown origin) in PBMC cells assessed as reduction of IL-6 production; type: cell-based
T1 sequence (Q9NR96 whole entry): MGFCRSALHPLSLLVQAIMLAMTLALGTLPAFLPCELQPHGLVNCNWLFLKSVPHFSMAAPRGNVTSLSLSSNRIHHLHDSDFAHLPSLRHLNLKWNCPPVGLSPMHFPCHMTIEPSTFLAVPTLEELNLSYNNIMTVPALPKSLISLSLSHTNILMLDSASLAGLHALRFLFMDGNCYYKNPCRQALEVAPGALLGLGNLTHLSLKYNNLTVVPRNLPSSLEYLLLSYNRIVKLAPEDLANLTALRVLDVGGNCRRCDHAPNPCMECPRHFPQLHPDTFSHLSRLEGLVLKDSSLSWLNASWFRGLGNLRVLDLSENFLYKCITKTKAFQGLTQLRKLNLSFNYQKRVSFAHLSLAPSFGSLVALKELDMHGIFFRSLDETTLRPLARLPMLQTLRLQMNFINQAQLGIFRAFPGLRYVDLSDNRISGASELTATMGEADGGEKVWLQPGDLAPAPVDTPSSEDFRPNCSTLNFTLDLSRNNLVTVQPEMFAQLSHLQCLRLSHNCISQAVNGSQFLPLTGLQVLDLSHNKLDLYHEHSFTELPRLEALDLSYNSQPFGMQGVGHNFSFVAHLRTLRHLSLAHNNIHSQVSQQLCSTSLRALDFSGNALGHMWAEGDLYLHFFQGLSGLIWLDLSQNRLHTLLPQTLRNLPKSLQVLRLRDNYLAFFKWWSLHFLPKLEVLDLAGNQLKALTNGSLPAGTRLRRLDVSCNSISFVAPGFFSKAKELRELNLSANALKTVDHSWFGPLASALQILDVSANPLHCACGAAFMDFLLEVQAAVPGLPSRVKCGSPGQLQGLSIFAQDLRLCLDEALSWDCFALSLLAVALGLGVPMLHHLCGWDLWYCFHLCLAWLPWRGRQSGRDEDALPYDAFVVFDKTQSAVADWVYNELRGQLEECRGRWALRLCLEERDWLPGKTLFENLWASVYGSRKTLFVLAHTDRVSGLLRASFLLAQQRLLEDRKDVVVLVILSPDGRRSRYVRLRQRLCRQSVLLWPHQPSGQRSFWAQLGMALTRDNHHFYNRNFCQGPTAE

Toll-like receptor 3 = target: T2, Toll-like receptor 3 (Homo sapiens, UniProt O15455); test: Antagonist activity at human TLR3 overexpressed in HEK-Blue cells assessed as inhibition of Poly IC-induced NFkappaB and AP-1 activation preincubated for 30 mins followed by Poly IC stimulation measured after 22 hrs by quanti-blue SEAP assay; type: cell-based
T2 sequence (O15455 whole entry): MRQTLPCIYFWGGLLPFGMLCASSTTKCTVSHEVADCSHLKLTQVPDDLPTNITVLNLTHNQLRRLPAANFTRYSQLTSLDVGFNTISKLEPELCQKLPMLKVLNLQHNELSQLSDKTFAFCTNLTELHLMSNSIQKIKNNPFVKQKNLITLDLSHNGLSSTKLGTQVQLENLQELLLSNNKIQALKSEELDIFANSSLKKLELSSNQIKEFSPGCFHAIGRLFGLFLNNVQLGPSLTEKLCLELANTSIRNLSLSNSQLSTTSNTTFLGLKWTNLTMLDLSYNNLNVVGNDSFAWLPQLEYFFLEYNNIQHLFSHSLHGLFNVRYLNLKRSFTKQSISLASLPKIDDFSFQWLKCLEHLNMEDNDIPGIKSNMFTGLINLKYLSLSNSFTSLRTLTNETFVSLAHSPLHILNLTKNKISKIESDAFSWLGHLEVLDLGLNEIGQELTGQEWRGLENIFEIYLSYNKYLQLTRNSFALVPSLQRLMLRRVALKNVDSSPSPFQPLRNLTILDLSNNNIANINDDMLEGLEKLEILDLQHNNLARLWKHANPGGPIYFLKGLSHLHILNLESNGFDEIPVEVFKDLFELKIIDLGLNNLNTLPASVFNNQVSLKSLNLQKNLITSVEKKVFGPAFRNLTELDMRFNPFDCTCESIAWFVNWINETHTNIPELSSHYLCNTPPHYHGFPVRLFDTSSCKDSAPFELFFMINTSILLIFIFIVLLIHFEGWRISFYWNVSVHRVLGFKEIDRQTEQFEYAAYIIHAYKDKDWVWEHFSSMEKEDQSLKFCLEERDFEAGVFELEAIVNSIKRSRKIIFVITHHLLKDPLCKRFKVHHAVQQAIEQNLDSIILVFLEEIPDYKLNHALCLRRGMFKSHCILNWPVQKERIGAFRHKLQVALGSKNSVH

Toll-like receptor 7 = target: T3, Toll-like receptor 7 (Mus musculus, UniProt P58681); test: In vivo antagonist activity at TLR7 in po dosed C57BL/6 mouse assessed as reduction of gardiquimod-induced IL-6 production pretreated for 30 mins followed by gardiquimod-stimulation and measured after 120 mins by ELISA
T3 sequence (P58681 whole entry): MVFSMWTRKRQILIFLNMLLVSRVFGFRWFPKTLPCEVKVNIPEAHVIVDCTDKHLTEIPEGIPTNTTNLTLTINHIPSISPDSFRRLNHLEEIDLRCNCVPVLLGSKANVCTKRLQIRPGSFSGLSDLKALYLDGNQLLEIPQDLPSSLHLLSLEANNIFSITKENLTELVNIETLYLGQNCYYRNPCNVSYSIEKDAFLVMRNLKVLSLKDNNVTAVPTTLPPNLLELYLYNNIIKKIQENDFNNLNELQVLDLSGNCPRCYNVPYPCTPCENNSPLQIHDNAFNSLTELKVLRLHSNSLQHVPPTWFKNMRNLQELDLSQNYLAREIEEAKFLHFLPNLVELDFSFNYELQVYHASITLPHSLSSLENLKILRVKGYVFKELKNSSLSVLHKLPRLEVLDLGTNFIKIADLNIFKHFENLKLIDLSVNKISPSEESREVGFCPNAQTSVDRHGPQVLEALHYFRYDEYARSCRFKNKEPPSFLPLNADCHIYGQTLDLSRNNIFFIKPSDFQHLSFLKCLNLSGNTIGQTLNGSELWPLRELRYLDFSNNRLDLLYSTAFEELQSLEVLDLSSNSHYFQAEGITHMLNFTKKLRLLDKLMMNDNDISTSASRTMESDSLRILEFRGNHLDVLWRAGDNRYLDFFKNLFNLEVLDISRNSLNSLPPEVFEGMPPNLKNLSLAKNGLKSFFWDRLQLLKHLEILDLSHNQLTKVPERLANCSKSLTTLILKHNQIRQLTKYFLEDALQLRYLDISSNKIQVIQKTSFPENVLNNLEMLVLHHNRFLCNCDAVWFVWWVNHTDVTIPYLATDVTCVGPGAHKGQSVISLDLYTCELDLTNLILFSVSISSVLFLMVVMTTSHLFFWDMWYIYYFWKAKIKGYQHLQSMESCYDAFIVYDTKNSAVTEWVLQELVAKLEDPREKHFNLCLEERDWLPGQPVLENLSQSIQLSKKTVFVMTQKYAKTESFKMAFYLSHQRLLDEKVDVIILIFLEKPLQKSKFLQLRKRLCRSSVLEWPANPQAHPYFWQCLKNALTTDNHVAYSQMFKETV

CNCCN1CCC(c2ccc3[nH]c(-c4ccc(OC)c(OC)c4)c(C(C)C)c3c2)CC1
IC50 (Toll-like receptor 9): 510 nM | IC50 (Toll-like receptor 3): 5440 nM | EC50 (Toll-like receptor 7): 2.4 nM
